The results in this text go back to patent publication US10301305B2 (priority 2014, dated 2019).

Common to all, as to format: biochemical
For one assay, the target named is E. feacalis DltA (Enterococcus faecalis, UniProt Q830N0). Briefly: in vitro DltA activity assay (luminescence), E. faecalis DltA. The following applies: recombinant DltA, 30 min pre-incubation, 0.5 mM D-Alanine, 0.5-5 μM ATP; read-out: E. feacalis DltA IC50. The procedure:
(§1) The effect of the compounds of the invention on DltA enzymes has been based on the measure of their inhibition of DltA activity in vitro. To this end, recombinant proteins DltA were expressed and purified after cloning of the genes of S. aureus, E. faecalis, E. faecium and S. agalactiae as described thereafter. The capacity of the compounds of the invention to inhibit DltA enzymatic activity was assessed using the DltA assays as described below:
(§2) The dltA gene was amplified from chromosomal DNA of S. aureus, E. faecalis, E. faecium and S. agalactiae and introduced into E. coli BL21 (Invitrogen, Carlsbad, Calif.) following manufacturer's instruction. Bacteria were grown at 37° C. under aerobic conditions and isopropyl-beta-D-thiogalactopyranoside (IPTG) was added to 0.5-1 mM when OD600 of the bacterial culture had reached 0.5. After a further incubation for 3 hours, cells were harvested by centrifugation. Purification of the recombinant DltA protein was performed by affinity chromatography on nickel-nitrilotriacetic acid (Ni-NTA) column following manufacturer's instructions (Qiagen). Fractions containing recombinant DltA protein were adjusted to 50% glycerol and stored at −20° C. until use.
(§3) The binding potency of the inhibitors against DltA enzyme was assessed by IC50 determination in an in vitro DltA activity assay. The assay buffer “AB” contained 50 mM Hepes pH8.0, 10 mM MgCl2, 50 mM KCl, 0.012% Triton-X100, 10 mM DTT and 100 nM Myelin-basic protein. The following components were added in a white polystyrene Costar plate up to a final volume of 30 μL: 3 μL DMSO, or inhibitor dissolved in DMSO and 27 μL DltA enzyme in AB. After 30 min of pre-incubation at room temperature, 30 μL of Substrates mix in AB were added in each well to a final volume of 60 μL. This reaction mixture was then composed of DltA (produced in house from S. aureus, E. faecalis, E. faecium and S. agalactiae), 0.5 mM D-Alanine (Sigma), 0.5-5 μM ATP (Sigma) and 0.05 u/ml inorganic pyrophosphatase (Sigma) in assay buffer. After typically 1-2 hours of incubation at room temperature (conversion rate around 30%), 30 μL of the revelation mix were added to a final volume of 90 μL, including the following constituents at the respective final concentrations: 10000 u/ml luciferase (Sigma), 30 μM D-luciferin (Sigma), 100 μM N-acetylcysteamine (Aldrich). Luminescence intensity was immediately measured on a Fluostar Optima (BMG) (excitation 360 nm, emission 520 nm) and converted into inhibition percentages. For IC50 determinations (Inhibitory Concentration 50%) the inhibitor was added at 6 to 10 different concentrations and the related inhibitions were fitted to a classical Langmuir equilibrium model using XLFIT (IDBS).
(§4) For compounds interfering with the luminescent signal (quenching), the same experiment without DltA enzyme was performed to allow quenching determination and correction.

In a further assay the target is S. aureus DltA (Staphylococcus aureus (strain NCTC 8325 / PS 47), UniProt Q2FZW6). Briefly: in vitro DltA activity assay (luminescence), S. aureus DltA. The following applies: recombinant DltA, 30 min pre-incubation, 0.5 mM D-Alanine, 0.5-5 μM ATP; read-out: S. aureus DltA IC50. The protocol:
as §1, §2, §3, §4

A further assay concerns the target S. Agalactiae DltA (Streptococcus agalactiae serotype III (strain NEM316), UniProt Q8VM67). Briefly: in vitro DltA activity assay (luminescence), S. agalactiae DltA. The note with it: recombinant DltA, 30 min pre-incubation, 0.5 mM D-Alanine, 0.5-5 μM ATP; read-out: S. Agalactiae DltA IC50. The procedure:
as §1, §2, §3, §4

The target in the next assay is E. feacium DltA (Enterococcus faecium, UniProt Q3XZT7). Put plainly: in vitro DltA activity assay (luminescence), E. faecium DltA. The following applies: recombinant DltA, 30 min pre-incubation, 0.5 mM D-Alanine, 0.5-5 μM ATP; read-out: E. feacium DltA IC50. The protocol: as §1, §2, §3, §4

Where a name gives a salt, the structure may show the parent alone.

E. feacalis DltA, sequence (Q830N0 1-506): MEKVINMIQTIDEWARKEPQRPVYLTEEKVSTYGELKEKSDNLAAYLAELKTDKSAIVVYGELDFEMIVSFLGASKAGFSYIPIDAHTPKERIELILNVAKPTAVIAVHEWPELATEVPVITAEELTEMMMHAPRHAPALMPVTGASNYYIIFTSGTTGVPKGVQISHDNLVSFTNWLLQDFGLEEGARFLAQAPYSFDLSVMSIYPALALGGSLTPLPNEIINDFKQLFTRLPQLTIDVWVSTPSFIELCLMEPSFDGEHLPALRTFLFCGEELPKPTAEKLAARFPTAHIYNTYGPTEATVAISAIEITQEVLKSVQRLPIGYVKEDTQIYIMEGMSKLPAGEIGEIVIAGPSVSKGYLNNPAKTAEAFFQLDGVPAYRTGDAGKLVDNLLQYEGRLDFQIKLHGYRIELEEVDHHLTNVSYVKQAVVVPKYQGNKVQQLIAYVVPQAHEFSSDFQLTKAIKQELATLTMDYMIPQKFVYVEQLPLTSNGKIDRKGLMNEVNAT
E. feacium DltA, sequence (Q3XZT7 1-504): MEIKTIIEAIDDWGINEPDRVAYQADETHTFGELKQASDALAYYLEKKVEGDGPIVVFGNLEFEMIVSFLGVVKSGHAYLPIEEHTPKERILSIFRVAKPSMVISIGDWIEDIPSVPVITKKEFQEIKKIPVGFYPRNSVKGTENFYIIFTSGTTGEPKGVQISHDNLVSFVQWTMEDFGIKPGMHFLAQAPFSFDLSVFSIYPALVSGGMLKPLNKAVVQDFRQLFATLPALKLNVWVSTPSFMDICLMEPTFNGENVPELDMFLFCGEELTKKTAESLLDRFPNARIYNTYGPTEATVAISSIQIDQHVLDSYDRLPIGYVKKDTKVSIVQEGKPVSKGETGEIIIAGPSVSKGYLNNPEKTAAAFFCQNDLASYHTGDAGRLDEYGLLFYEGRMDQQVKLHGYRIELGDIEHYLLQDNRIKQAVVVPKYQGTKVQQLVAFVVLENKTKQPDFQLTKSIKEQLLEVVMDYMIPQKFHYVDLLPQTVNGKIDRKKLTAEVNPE

Turning to `CN(CCO)c1cc(-c2cnc3c(c2)CCCO3)c2nc[nH]c2c1C(N)=O` [Example 177, 7-(3,4-Dihydro-2H-pyrano[2,3-b]pyridin-6-yl)-5-[(2-hydroxy-ethyl)-methyl-amino]-3H-benzimidazole-4-carboxamide], the IC50 (usually the midpoint of a concentration-inhibition curve) at E. feacalis DltA is 45 nM; on S. aureus DltA, 170 nM; at S. Agalactiae DltA it was 1100 nM; at E. feacium DltA, 320 nM.

As to `CN(C)CCN(C)c1cc(-c2cncc(C3CC3)c2)c2nc[nH]c2c1C(N)=O` [Example 202, 4-(5-cyclopropylpyridin-3-yl)-6-((2-(dimethylamino)ethyl)-(methyl)amino)-1H-benzo[d]imidazole-7-carboxamide], the IC50 at E. feacalis DltA is 95 nM; on S. aureus DltA, 110 nM; at S. Agalactiae DltA, 2000 nM; on E. feacium DltA, 190 nM.

Turning to `CN(C)CCN(C)c1cc(-c2ccc3c(c2)ncn3C2CCC(F)(F)CC2)c2nc[nH]c2c1C(N)=O` [Example 161, 1′-(4,4-Difluoro-cyclohexyl)-6-[(2-dimethylamino-ethyl)-methyl-amino]-1H,1′H-[4,5′]bibenzimidazolyl-7-carboxamide], the IC50 was 8.1 nM at E. feacalis DltA, 13 nM on S. aureus DltA, 1200 nM at S. Agalactiae DltA and 69 nM at E. feacium DltA.

For `CN(C)CCN(C)c1cc(-c2ccc(N(C)C)nc2)c2nc[nH]c2c1C(N)=O` [Example 205, 5-[2-(dimethylamino)ethyl-methyl-amino]-7-[6-(dimethylamino)-3-pyridyl]-3H-benzimidazole-4-carboxamide], the concentration for half-maximal inhibition (IC50) turned out to be 9.2 nM on E. feacalis DltA, 140 nM on S. aureus DltA, 4300 nM at S. Agalactiae DltA and 30 nM on E. feacium DltA.

Take `OCC1(CO)CCN(c2cc3[nH]cnc3c(-c3ccc4c(c3)ncn4C3CCCCC3)n2)CC1` [Example 20, {1-[4-(1-Cyclohexyl-1H-benzimidazol-5-yl)-1H-imidazo[4,5-c]pyridin-6-yl]-4-hydroxymethyl-piperidin-4-yl}-methanol]: the half-maximal inhibitory concentration (IC50) at E. feacalis DltA is 56 nM; at S. aureus DltA it was 12 nM; at S. Agalactiae DltA it was 290 nM; at E. feacium DltA it was 170 nM.

For the compound `NC(=O)c1c(N2CC3CNCC3C2)cc(-c2ccc3c(c2)ncn3C2CCCCC2)c2nc[nH]c12` (stereo not drawn) [Example 65, 1′-Cyclohexyl-6-(hexahydro-pyrrolo[3,4-c]pyrrol-2-yl)-1H,1′H-[4,5′]bibenzimidazolyl-7-carboxylic acid amide hydrochloride], the IC50 on E. feacalis DltA was determined as 36 nM; on S. aureus DltA, 66 nM; at S. Agalactiae DltA, 1800 nM; at E. feacium DltA, 140 nM.

For `c1nc2c(-c3ccc4c(c3)ncn4C3CCCCC3)cc(N3CC4CNCC4C3)cc2[nH]1` (stereo not drawn) [Example 36, 1′-Cyclohexyl-6-(hexahydro-pyrrolo[3,4-c]pyrrol-2-yl)-1H,1′H-[4,5′]bibenzimidazolyl], the IC50 on E. feacalis DltA was found to be 170 nM; at S. aureus DltA, 80 nM; on S. Agalactiae DltA, 3800 nM; at E. feacium DltA it was 1100 nM.

Take `O=C(NO)c1c(F)cc(-c2ccc3c(c2)ncn3C2CCCCC2)c2nc[nH]c12` [Example 111, 1′-Cyclohexyl-6-fluoro-1H,1′H-[4,5′]bibenzimidazolyl-N-hydroxy-7-carboxamide]: the IC50 on E. feacalis DltA was 610 nM; at S. aureus DltA, 280 nM; on S. Agalactiae DltA, 11000 nM; on E. feacium DltA, 1100 nM.

For `COCCN(C)c1cc(-c2ccc3c(c2)ncn3C2CCCCC2)c2nc[nH]c2c1C(N)=O` [Example 176, 1′-Cyclohexyl-6-[(2-methoxy-ethyl)-methyl-amino]-1H,1′H-[4,5′]bibenzimidazolyl-7-carboxamide], the IC50 on E. feacalis DltA is 35 nM; on S. aureus DltA, 940 nM; on S. Agalactiae DltA it was 2300 nM; at E. feacium DltA, 190 nM.

`CN(C)CCCN(C)c1cc(-c2ccc3c(c2)ncn3C2CCCCC2)c2nc[nH]c2c1C(N)=O` [Example 122, 1′-Cyclohexyl-6-[(3-dimethylamino-propyl)-methyl-amino]-1H,1′H-[4,5′]bibenzimidazolyl-7-carboxamide]: the IC50 at E. feacalis DltA was found to be 31 nM; on S. aureus DltA it was 59 nM; on S. Agalactiae DltA, 1800 nM; at E. feacium DltA, 82 nM.

`COCCn1cnc2cc(-c3cc(N(C)CCN(C)C)c(C(N)=O)c4[nH]cnc34)ccc21` [Example 135]: the IC50 was 69 nM on E. feacalis DltA, 17 nM on S. aureus DltA, 840 nM on S. Agalactiae DltA and 45 nM on E. feacium DltA.

With `c1nc2c(-c3ccc4c(c3)ncn4C3CCCCC3)cc(N3CC4CNCC4C3)nc2[nH]1` (stereo not drawn) [Example 11, 7-(1-Cyclohexyl-1H-benzimidazol-5-yl)-5-(hexahydro-pyrrolo[3,4-c]pyrrol-2-yl)-3H-imidazo[4,5-b]pyridine], the IC50 on E. feacalis DltA is 19 nM; at S. aureus DltA, 1.4 nM; at S. Agalactiae DltA, 260 nM; on E. feacium DltA it was 30 nM.

Turning to `CCCCn1cnc2cc(-c3cc(N(C)CCN(C)C)c(C(N)=O)c4[nH]cnc34)ccc21` [Example 203, 7-(1-butylbenzimidazol-5-yl)-5-[2-(dimethylamino)ethyl-methyl-amino]-3H-benzimidazole-4-carboxamide], the half-maximal inhibitory concentration (IC50) on E. feacalis DltA was found to be 7.3 nM; at S. aureus DltA it was 28 nM; at S. Agalactiae DltA it was 350 nM; at E. feacium DltA, 110 nM.

Turning to `CN(C)CCN(C)c1cc(-c2ccc3c(c2)ncn3-c2ccccc2)c2nc[nH]c2c1C(N)=O` [Example 204, 5-[2-(dimethylamino)ethyl-methyl-amino]-7-(1-phenylbenzimidazol-5-yl)-3H-benzimidazole-4-carboxamide], the IC50 on E. feacalis DltA came out at 12 nM; at S. aureus DltA, 17 nM; at S. Agalactiae DltA, 1400 nM; at E. feacium DltA, 58 nM.

With `CN1CCN(c2cc(-c3ccc4c(c3)ncn4C3CCCCC3)c3nc[nH]c3c2C(N)=O)CC1` [Example 106, 1′-Cyclohexyl-6-(4-methyl-piperazin-1-yl)-1H,1′H-[4,5′]bibenzimidazolyl-7-carboxamide], the half-inhibitory concentration (IC50) on E. feacalis DltA was found to be 18 nM; at S. aureus DltA, 34 nM; at S. Agalactiae DltA it was 500 nM; at E. feacium DltA it was 76 nM.

On to `O=[N+]([O-])c1c(N2CC[C@H](CO)[C@@H](O)C2)cc(-c2ccc3c(c2)ncn3C2CCCCC2)c2nc[nH]c12` [Example 44, (3R,4R)-1-(1′-Cyclohexyl-7-nitro-1H,1′H-[4,5′]bibenzimidazolyl-6-yl)-4-hydroxymethyl-piperidin-3-ol], for which the half-maximal inhibitory concentration (IC50) on E. feacalis DltA was found to be 71 nM; on S. aureus DltA, 49 nM; at S. Agalactiae DltA it was 1500 nM; on E. feacium DltA, 96 nM.

Turning to `N#Cc1c(N2CCC(CO)(CO)CC2)cc(-c2ccc3c(c2)ncn3C2CCCCC2)c2nc[nH]c12` [Example 61, 6-(4,4-Bis-hydroxymethyl-piperidin-1-yl)-1′-cyclohexyl-1H,1′H-[4,5′]bibenzimidazolyl-7-carbonitrile], the IC50 was 110 nM at E. feacalis DltA, 240 nM on S. aureus DltA, 4700 nM on S. Agalactiae DltA and 230 nM on E. feacium DltA.

In the case of `CN(C)CCN(C)c1cc(-c2ccc3c(c2)ncn3CC(F)F)c2nc[nH]c2c1C(N)=O` [Example 163, 1′-(2,2-Difluoro-ethyl)-6-[(2-dimethylamino-ethyl)-methyl-amino]-1H,1′H-[4,5′]bibenzimidazolyl-7-carboxamide], the IC50 on E. feacalis DltA was found to be 5.4 nM; at S. aureus DltA, 14 nM; at S. Agalactiae DltA it was 780 nM; on E. feacium DltA, 34 nM.
